{
  "source": "PubChem BioAssay AID328",
  "about": "(DTP/NCI, 2004)",
  "system": "BDF1 mice, P388 leukemia ip, median survival T/C",
  "test": "NCI In Vivo Anticancer Drug Screen. Data for tumor model P388 Leukemia (intraperitoneal) in B6D2F1 (BDF1) mice",
  "details": "endpoint: median survival time, higher = longer survival",
  "method_in_brief": "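Read-out is survival of treated animals expressed relative to the vehicle group, as a T/C ratio.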",
  "key": {"[1]": {"details": "dose: 50.0 mg/kg/injection, schedule: Q01DX009 (ip), vehicle: saline with Tween-80"}, "[2]": {"details": "dose: 100.0 mg/kg/injection, schedule: Q01DX009 (ip), vehicle: saline with Tween-80"}, "[3]": {"details": "dose: 200.0 mg/kg/injection, schedule: Q01DX009 (ip), vehicle: saline with Tween-80"}, "[4]": {"details": "dose: 100.0 mg/kg/injection, schedule: Q04DX003 (ip), vehicle: saline with Tween-80"}, "[5]": {"details": "dose: 200.0 mg/kg/injection, schedule: Q04DX003 (ip), vehicle: saline with Tween-80"}, "[6]": {"details": "dose: 400.0 mg/kg/injection, schedule: Q04DX003 (ip), vehicle: saline with Tween-80"}, "[7]": {"details": "dose: 12.5 mg/kg/injection, schedule: Q01DX009 (ip), vehicle: saline"}, "[8]": {"details": "dose: 25.0 mg/kg/injection, schedule: Q01DX009 (ip), vehicle: saline"}, "[9]": {"details": "dose: 50.0 mg/kg/injection, schedule: Q01DX009 (ip), vehicle: saline"}, "[10]": {"details": "dose: 400.0 mg/kg/injection, schedule: Q01DX009 (ip), vehicle: saline with Tween-80"}, "[11]": {"details": "dose: 100.0 mg/kg/injection, schedule: Q04DX003 (ip), vehicle: Klucel (hydroxypropylcellulose) (HPC)"}, "[12]": {"details": "dose: 200.0 mg/kg/injection, schedule: Q04DX003 (ip), vehicle: Klucel (hydroxypropylcellulose) (HPC)"}, "[13]": {"details": "dose: 400.0 mg/kg/injection, schedule: Q04DX003 (ip), vehicle: Klucel (hydroxypropylcellulose) (HPC)"}, "[14]": {"details": "dose: 25.0 mg/kg/injection, schedule: Q04DX003 (ip), vehicle: saline"}, "[15]": {"details": "dose: 50.0 mg/kg/injection, schedule: Q04DX003 (ip), vehicle: saline"}, "[16]": {"details": "dose: 100.0 mg/kg/injection, schedule: Q04DX003 (ip), vehicle: saline"}, "[17]": {"details": "dose: 200.0 mg/kg/injection, schedule: Q04DX003 (ip), vehicle: saline"}},
  "note": "Inconclusive results and toxic doses are left out.",
  "data": [
    {"smiles": "O=C(O)/C=C/c1ccc(Cl)cc1Cl", "values": [
      {"measurement": "T/C", "setting": "[1]", "result": "95 % of control"},
      {"measurement": "T/C", "setting": "[2]", "result": "90 % of control"},
      {"measurement": "T/C", "setting": "[3]", "result": "90 % of control"}
    ]},
    {"smiles": "COc1ccc2[nH]c(=S)[nH]c(=S)c2c1", "values": [
      {"measurement": "T/C", "setting": "[4]", "result": "92 % of control"},
      {"measurement": "T/C", "setting": "[5]", "result": "91 % of control"},
      {"measurement": "T/C", "setting": "[6]", "result": "100 % of control"}
    ]},
    {"smiles": "Oc1cccnc1CN1CCCCC1", "values": [
      {"measurement": "T/C", "setting": "dose: 6.25 mg/kg/injection, schedule: Q01DX009 (ip), vehicle: saline", "result": "103 % of control"},
      {"measurement": "T/C", "setting": "[7]", "result": "111 % of control"},
      {"measurement": "T/C", "setting": "[8]", "result": "107 % of control"},
      {"measurement": "T/C", "setting": "[9]", "result": "88 % of control"}
    ]},
    {"smiles": "OCC(O)C(O)C(O)C(O)C(O)c1nc2ccccc2[nH]1", "note": "(stereo unspecified)", "values": [
      {"measurement": "T/C", "setting": "[2]", "result": "100 % of control"},
      {"measurement": "T/C", "setting": "[3]", "result": "91 % of control"},
      {"measurement": "T/C", "setting": "[10]", "result": "93 % of control"}
    ]},
    {"smiles": "CSC(=S)NN=C(C)C", "values": [
      {"measurement": "T/C", "setting": "dose: 3.13 mg/kg/injection, schedule: Q01DX009 (ip), vehicle: saline with Tween-80", "result": "96 % of control"}
    ]},
    {"smiles": "C1=CC=CN(c2ccccc2)C=C1", "values": [
      {"measurement": "T/C", "setting": "dose: 50.0 mg/kg/injection, schedule: Q01DX009 (ip), vehicle: Klucel (hydroxypropylcellulose) (HPC)", "result": "90 % of control"},
      {"measurement": "T/C", "setting": "dose: 100.0 mg/kg/injection, schedule: Q01DX009 (ip), vehicle: Klucel (hydroxypropylcellulose) (HPC)", "result": "105 % of control"},
      {"measurement": "T/C", "setting": "[11]", "result": "95 % of control"},
      {"measurement": "T/C", "setting": "dose: 200.0 mg/kg/injection, schedule: Q01DX009 (ip), vehicle: Klucel (hydroxypropylcellulose) (HPC)", "result": "105 % of control"},
      {"measurement": "T/C", "setting": "[12]", "result": "91 % of control"},
      {"measurement": "T/C", "setting": "[13]", "result": "100 % of control"}
    ]},
    {"smiles": "CCOC(=O)Oc1ccc(/C=N/NC(N)=S)nc1", "values": [
      {"measurement": "T/C", "setting": "[1]", "result": "169 % of control"},
      {"measurement": "T/C", "setting": "[2]", "result": "178 % of control"}
    ]},
    {"smiles": "CN1CCN(C)P1OCC(F)(F)F", "values": [
      {"measurement": "T/C", "setting": "dose: 25.0 mg/kg/injection, schedule: Q01DX005 (ip), vehicle: saline", "result": "87 % of control"},
      {"measurement": "T/C", "setting": "dose: 50.0 mg/kg/injection, schedule: Q01DX005 (ip), vehicle: saline", "result": "100 % of control"},
      {"measurement": "T/C", "setting": "dose: 100.0 mg/kg/injection, schedule: Q01DX005 (ip), vehicle: saline", "result": "87 % of control"}
    ]},
    {"smiles": "O=[n+]1c2ccccc2n([O-])c2ccccc21.[Cl][Ni][Cl]", "values": [
      {"measurement": "T/C", "setting": "dose: 6.25 mg/kg/injection, schedule: Q04DX003 (ip), vehicle: saline with Tween-80", "result": "105 % of control"},
      {"measurement": "T/C", "setting": "dose: 12.5 mg/kg/injection, schedule: Q04DX003 (ip), vehicle: saline with Tween-80", "result": "112 % of control"}
    ]},
    {"smiles": "C=CCNC(=S)N/N=C\\c1cc(OC)c(OC)c(OC)c1", "values": [
      {"measurement": "T/C", "setting": "[1]", "result": "95 % of control"},
      {"measurement": "T/C", "setting": "[2]", "result": "100 % of control"},
      {"measurement": "T/C", "setting": "[3]", "result": "90 % of control"}
    ]},
    {"smiles": "CN(C)[C@@H]1C(=O)C(C(=O)NCNC(CO)(CO)CO)=C(O)[C@@]2(O)C(=O)C3=C(O)c4c(O)cccc4[C@@](C)(O)[C@H]3C[C@@H]12", "values": [
      {"measurement": "T/C", "setting": "[14]", "result": "100 % of control"},
      {"measurement": "T/C", "setting": "[15]", "result": "95 % of control"},
      {"measurement": "T/C", "setting": "[16]", "result": "90 % of control"},
      {"measurement": "T/C", "setting": "[17]", "result": "104 % of control"}
    ]},
    {"smiles": "Cc1ccc(NC(=O)OCCOc2ccc(-c3ccccc3)cc2)c([N+](=O)[O-])c1", "values": [
      {"measurement": "T/C", "setting": "dose: 12.5 mg/kg/injection, schedule: Q01DX009 (ip), vehicle: DMSO", "result": "100 % of control"},
      {"measurement": "T/C", "setting": "dose: 25.0 mg/kg/injection, schedule: Q01DX009 (ip), vehicle: DMSO", "result": "119 % of control"},
      {"measurement": "T/C", "setting": "dose: 50.0 mg/kg/injection, schedule: Q01DX009 (ip), vehicle: DMSO", "result": "102 % of control"}
    ]},
    {"smiles": "CC(=O)Nc1ccn(CC(=O)c2ccco2)c(=O)n1", "values": [
      {"measurement": "T/C", "setting": "[2]", "result": "104 % of control"},
      {"measurement": "T/C", "setting": "[4]", "result": "105 % of control"},
      {"measurement": "T/C", "setting": "[3]", "result": "95 % of control"},
      {"measurement": "T/C", "setting": "[5]", "result": "105 % of control"},
      {"measurement": "T/C", "setting": "[10]", "result": "90 % of control"},
      {"measurement": "T/C", "setting": "[6]", "result": "100 % of control"}
    ]},
    {"smiles": "c1cc2c(cc1C1SCSCS1)OCO2", "values": [
      {"measurement": "T/C", "setting": "[11]", "result": "90 % of control"},
      {"measurement": "T/C", "setting": "[12]", "result": "100 % of control"},
      {"measurement": "T/C", "setting": "[13]", "result": "100 % of control"}
    ]},
    {"smiles": "CCCCCCCNC(=O)Nc1cc([N+](=O)[O-])ccc1C", "values": [
      {"measurement": "T/C", "setting": "[4]", "result": "100 % of control"},
      {"measurement": "T/C", "setting": "[5]", "result": "100 % of control"},
      {"measurement": "T/C", "setting": "[6]", "result": "104 % of control"}
    ]},
    {"smiles": "CSc1ncc2n1C=CN(C(=O)c1ccc([N+](=O)[O-])cc1)C2O", "note": "(stereo unspecified)", "values": [
      {"measurement": "T/C", "setting": "[7]", "result": "99 % of control"},
      {"measurement": "T/C", "setting": "[8]", "result": "87 % of control"},
      {"measurement": "T/C", "setting": "[14]", "result": "107 % of control"},
      {"measurement": "T/C", "setting": "[9]", "result": "92 % of control"},
      {"measurement": "T/C", "setting": "[15]", "result": "94 % of control"},
      {"measurement": "T/C", "setting": "[16]", "result": "93 % of control"},
      {"measurement": "T/C", "setting": "[17]", "result": "90 % of control"}
    ]},
    {"smiles": "COc1ccc(Br)cc1/C=C/[N+](=O)[O-]", "values": [
      {"measurement": "T/C", "setting": "[1]", "result": "87 % of control"}
    ]},
    {"smiles": "CC(=O)N(/N=C/c1cc(C=O)n(-c2ccccc2)n1)c1ccccc1", "values": [
      {"measurement": "T/C", "setting": "[1]", "result": "86 % of control"},
      {"measurement": "T/C", "setting": "[2]", "result": "90 % of control"},
      {"measurement": "T/C", "setting": "[3]", "result": "105 % of control"}
    ]},
    {"smiles": "C=CC(C#N)(C=C)C=C", "values": [
      {"measurement": "T/C", "setting": "[1]", "result": "104 % of control"}
    ]}
  ]
}
